This note sets out measurements from ChEMBL document CHEMBL1201862, “PubChem BioAssay data set” (2004).

Values joined by “and” are separate entries in the source; they are usually repeats but may differ in a detail not shown here. Equal entries are not always repeated.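 1) Cells in 96-well plates. 2) Compound, 48 h, 5 concentrations. 3) Linear interpolation between surrounding doses. 4) Unreached endpoint = highest concentration. At the GI50, growth is halved.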 Active and inactive are the calls of the source. No stated cut-off is given here; in the data, active = GI50 up to about 1.1 µM and inactive = higher.

Experiment in all cases: NCI anticancer screen, dose series, 48 h
The test system of assay [1] is A498.
For assay [2], the system named is A549.
For assay [3], the system named is HCC 2998.
The subject of assay [4] is HCT-116.
The test system of assay [5] is Hs-578T.
Assay [6] concerns LOX IMVI.
The test system of assay [7] is MOLT-4.
Assay [8] concerns NCI-H23.
Assay [9] concerns NCI-H522.
For assay [10], the system named is NCI/ADR-RES.
Assay [11] relates to OVCAR-8.
The subject of assay [12] is PC-3.
For assay [13], the system named is SF-295.
In assay [14] the test system is SK-MEL-28.
In assay [15] the test system is SK-OV-3.
The subject of assay [16] is SN12C.
In assay [17] the test system is SR.
Assay [18] concerns U-251.
Assay [19] has as its system UACC-62.
Assay [20] concerns SNB-75.

For the compound `O=C1C/C(=C\O)C(=O)c2ccccc2N1`, the GI50 in assay [1], in assay [2], in assay [3], in assay [4], in assay [5] and in [6] was > 100 µM (inactive) in each case. Besides, the GI50 in assay [7], in [8], in [9], in assay [10], in assay [11] and in [12] was > 100 µM (inactive) in each case. Further, the GI50 in assay [13], in assay [14], in assay [15], in assay [16], in assay [17] and in assay [18] was > 100 µM (inactive) throughout. The GI50 in assay [19] was > 100 µM (inactive).

With `CN(C)c1n/c(=N/Cc2ccccn2)ss1`, the GI50 is > 10 µM (inactive) in assay [1]; > 10 µM (inactive) in assay [2]; > 10 µM (inactive) in assay [3]; 7.98 µM (inactive) in assay [4]; > 10 µM (inactive) in assay [5]; 2.51 µM (inactive) in [6]. Besides, the GI50 is 1.78 µM (inactive) in [7]; > 10 µM (inactive) in assay [8]; > 10 µM (inactive) in assay [10]; > 5.3 µM (inactive) in assay [11]; > 10 µM (inactive) in [12]; > 10 µM (inactive) in assay [13]. Also, the GI50 is > 10 µM (inactive) in [14]; > 10 µM (inactive) in assay [15]; 9.77 µM (inactive) in assay [16]; > 10 µM (inactive) in assay [20]; 1.93 µM (inactive) in assay [17]; > 10 µM (inactive) in assay [18]. In addition, the GI50 in assay [19] was > 10 µM (inactive).

As for `Cc1cc(C)nc(NS(=O)(=O)c2ccc(Nc3c4ccccc4nc4c(C(=O)NC(CO)(CO)CO)cccc34)cc2)n1`, the GI50 was 31.3 µM (inactive) in assay [1]; 27.5 µM (inactive) in assay [2]; 16 µM (inactive) in assay [3]; 38.4 µM (inactive) in assay [5]; 17.3 µM (inactive) in [6]; 6.1 µM (inactive) in assay [7]. The GI50 was 33.7 µM (inactive) in assay [8]; 13.9 µM (inactive) in assay [9]; > 100 µM (inactive) in [10]; 39.3 µM (inactive) in [11]; 35.6 µM (inactive) in [12]; 30.8 µM (inactive) in assay [13]. The GI50 in assay [14] is 27.1 µM (inactive); in [15], 31.9 µM (inactive); in [16], 29.6 µM (inactive); in assay [20], 5.65 µM (inactive); in assay [17] it was 23.2 µM (inactive); in assay [18], 24.8 µM (inactive). The GI50 in assay [19] was 31.3 µM (inactive).

Regarding `CCC(C)C1=C(O)[N+]2([O-])Oc3ccc(-c4c(O)c(O)c(-c5ccc(OC(C)=O)cc5)c(OC(C)=O)c4OC(C)=O)cc3OC2(C(C)CC)C(=O)N1O` (centres undefined), the GI50 is 19.3 µM (inactive) in assay [1]; > 50 µM (inactive) and 29.2 µM (inactive) in assay [2]; 11.9 µM (inactive) in assay [3]; > 50 µM (inactive) in assay [5]; 38.3 µM (inactive) and 37.2 µM (inactive) in assay [6]; 23.7 µM (inactive) and 14.4 µM (inactive) in assay [7]. Further, the GI50 is > 50 µM (inactive) in [8]; 14.4 µM (inactive) and 16.1 µM (inactive) in assay [9]; > 50 µM (inactive) in [10]; > 50 µM (inactive) in [11]; > 50 µM (inactive) in [12]; > 50 µM (inactive) in [13]. In addition, the GI50 in assay [14] is 46.1 µM (inactive); in assay [15], > 50 µM (inactive); in assay [16], 42.9 µM (inactive); in [17] it was 22.3 µM (inactive) and 13.9 µM (inactive); in [18] it was > 50 µM (inactive); in assay [19] it was > 50 µM (inactive) and 31.3 µM (inactive).

Consider `O=C1C(Cl)C2(CC(/C=C/c3ccccc3O)=NN2c2cccc(S(=O)(=O)O)c2)N1c1nc2ccccc2s1` (centres undefined), for which the GI50 is 20.9 µM (inactive) in [1]; 23.7 µM (inactive) in assay [2]; 14.5 µM (inactive) in assay [3]; 15.4 µM (inactive) in assay [4]; 23.9 µM (inactive) in assay [5]; 9.62 µM (inactive) in assay [6]. For the same compound, the GI50 in assay [7] is 17.1 µM (inactive); in assay [8] it was 15.6 µM (inactive); in assay [9], 3.57 µM (inactive); in [10], 36.1 µM (inactive); in assay [11], 24.3 µM (inactive); in [12] it was 24.8 µM (inactive). Moreover, the GI50 in assay [14] was 24.2 µM (inactive); in assay [16], 14.2 µM (inactive); in assay [20] it was 38.8 µM (inactive); in assay [17] it was 15.3 µM (inactive); in assay [18], 16.7 µM (inactive); in [19] it was 15.2 µM (inactive).

On to `C/C(=N\NC(=S)N1CCCCCC1)c1cccc2cccnc12`, for which the GI50 is 5.64 µM (inactive) in [1]; 1.13 µM (inactive) in assay [2]; 2.76 µM (inactive) in assay [3]; 0.634 µM (active) in assay [4]; 19.7 µM (inactive) in assay [5]; 0.767 µM (active) in assay [6]. Further, the GI50 in [7] is 0.134 µM (active); in assay [8] it was 1.32 µM (inactive); in assay [9], 0.193 µM (active); in [10], 1.03 µM (active); in assay [11] it was 1.38 µM (inactive); in [12] it was 3.81 µM (inactive). The GI50 in assay [13] was 0.271 µM (active); in assay [14] it was 1.77 µM (inactive); in [15] it was 3.77 µM (inactive); in assay [20] it was 23 µM (inactive); in assay [17], < 0.01 µM (active); in assay [18] it was 0.839 µM (active).

Consider `CC(C)c1ccc2nc3ccc(C(=O)NCCN(C)C)cn3c(=O)c2c1`, for which the GI50 is 14 µM (inactive) in assay [1]; 17.4 µM (inactive) in assay [2]; 14.1 µM (inactive) in assay [3]; 13.9 µM (inactive) in assay [4]; 15.2 µM (inactive) in assay [5]; 15 µM (inactive) in assay [7]. Besides, the GI50 in assay [8] is 15.5 µM (inactive); in [9], 15.3 µM (inactive); in assay [10], 18.2 µM (inactive); in [11] it was 18.8 µM (inactive); in assay [12] it was 13.6 µM (inactive); in assay [13] it was 10.9 µM (inactive). The GI50 in [14] is 16.5 µM (inactive); in assay [15], 17.5 µM (inactive); in [16], 14.8 µM (inactive); in assay [20], 10.4 µM (inactive); in assay [17], 17.5 µM (inactive); in [18] it was 19.9 µM (inactive). For the same compound, the GI50 in [19] is 16.6 µM (inactive).

As to `CC(=O)N1N=C(c2c(O)ccc3ccccc23)CC1c1ccc(Cl)cc1` (centres undefined), the GI50 in assay [1] is 26.1 µM (inactive); in assay [2] it was 23.6 µM (inactive); in assay [3], 17.7 µM (inactive); in assay [4], 15 µM (inactive); in [5], 17.1 µM (inactive); in [7], 10.9 µM (inactive). Also, the GI50 was 15.1 µM (inactive) in assay [8]; 22.9 µM (inactive) in [9]; 14.5 µM (inactive) in [10]; 26.9 µM (inactive) in [11]; 17 µM (inactive) in [12]; 19.9 µM (inactive) in assay [13]. The GI50 in assay [14] is 27.4 µM (inactive); in assay [15], 28.4 µM (inactive); in assay [16] it was 18.7 µM (inactive); in [20] it was 22 µM (inactive); in assay [17], 6.35 µM (inactive); in assay [18], 21.9 µM (inactive). The GI50 in assay [19] is 14.1 µM (inactive).

For the compound `CC(=O)OC12c3ccccc3-c3ccccc3C1C(C(=O)O)C2(Cl)C(=O)O` (centres undefined), the GI50 in [1], in assay [3], in assay [5], in [6], in assay [7] and in assay [8] was > 10 µM (inactive) each time. Besides, the GI50 in [9], in assay [10], in [11], in assay [12], in assay [13] and in [14] was > 10 µM (inactive) throughout. Moreover, the GI50 in [15], in assay [16], in assay [20], in assay [17] and in assay [18] was > 10 µM (inactive) throughout.

`COC(=O)C(=O)C(C(=O)C(=O)Nc1ccccc1OC)c1nc2ccc([N+](=O)[O-])cc2nc1O` (centres undefined): the GI50 in assay [1] was > 100 µM (inactive); in assay [2] it was > 100 µM (inactive); in assay [3] it was > 100 µM (inactive); in [4] it was > 100 µM (inactive); in assay [5] it was 78.2 µM (inactive); in assay [6] it was 96.2 µM (inactive). Moreover, the GI50 in assay [7] is > 100 µM (inactive); in [9], 65.2 µM (inactive); in assay [10], > 100 µM (inactive); in assay [11], > 100 µM (inactive); in assay [12], > 100 µM (inactive); in assay [13] it was > 100 µM (inactive). Further, the GI50 in [14], in assay [15], in [16], in assay [20], in assay [17] and in assay [18] was > 100 µM (inactive) each time. The GI50 in assay [19] is > 100 µM (inactive).

For `NC(=S)N/N=C\c1nccc2ccccc12`, the GI50 was 0.21 µM (active) in assay [1]; 0.413 µM (active) in assay [2]; 3.04 µM (inactive) in [3]; 0.44 µM (active) in assay [4]; 10.7 µM (inactive) in assay [5]; 0.324 µM (active) in [6]. In addition, the GI50 in assay [7] is 0.226 µM (active); in assay [8] it was 0.314 µM (active); in [9], 0.908 µM (active); in assay [10], 0.285 µM (active); in [11], 0.209 µM (active); in [12], 0.685 µM (active). The GI50 in assay [13] is 0.187 µM (active); in assay [14] it was 0.36 µM (active); in assay [15] it was 0.2 µM (active); in assay [16], 0.262 µM (active); in assay [17] it was 0.126 µM (active); in [18], 0.281 µM (active). The GI50 in assay [19] is 0.136 µM (active).
